According to patent US20190218188A1, “NOVEL 5-SUBSTITUTED IMIDAZOLE DERIVATIVES” (Bayer CropScience Aktiengesellschaft, priority 2016, published 2019):

Test: Log P by HPLC on reversed phase columns (EEC directive 79/831 Annex V.A8)
Assay type: physicochemical
Conditions: reversed phase HPLC column; method [a]: LC-UV, acidic range, 0.1% formic acid in water and acetonitrile as eluent (linear gradient 10% to 95% acetonitrile)
Description: Measurement of Log P values was performed according to EEC directive 79/831 Annex V.A8 by HPLC (High Performance Liquid Chromatography) on reversed phase columns with the following methods: • ^[a] Log P value is determined by measurement of LC-UV, in an acidic range, with 0.1% formic acid in water and acetonitrile as eluent (linear gradient from 10% acetonitrile to 95% acetonitrile). • ^[b] Log P value is determined by measurement of LC-UV, in a neutral range, with 0.001 molar ammonium acetate solution in water and acetonitrile as eluent (linear gradient from 10% acetonitrile to 95% acetonitrile). • ^[c] Log P value is determined by measurement of LC-UV, in an acidic range, with 0.1% phosphoric acid and acetonitrile as eluent (linear gradient from 10% acetonitrile to 95% acetonitrile). If more than one Log P value is available within the same method, all the values are given and separated by “+”. Calibration was done with straight-chain alkan2-ones (with 3 to 16 carbon atoms) with known Log P values (measurement of Log P values using retention times with linear interpolation between successive alkanones).

SMILES | chromatographic logP
N#Cc1cncn1CC(Cl)(Cc1cccc(F)c1F)C1(Cl)CC1 (centres unmarked) [Example I-02, 1-[2-chloro-2-(1-chlorocyclopropyl)-3-(2,3-difluorophenyl)propyl]-1H-imidazole-5-carbonitrile] | 3.25
N#Cc1cncn1CC(F)(Cc1cccc(F)c1F)C1(Cl)CC1 (centres unmarked) [Example I-01, 1-[2-(1-chlorocyclopropyl)-3-(2,3-difluorophenyl)-2-fluorpropyl]-1H-imidazole-5-carbonitrile] | 2.98
